Patent US5578622A, “Isothiazole derivatives and their uses” (Asamura Patent Office, priority 1994, dated 1996)

Legend:
Assay type in all cases: cell-based
Tyromyces palustris = assay: Test for wood rotting-preventing effect (mycelium growth inhibition on malt extract agar); details: 28° C.±2° C., 2 to 10 days, read-out: Rotting preventing effect (mycelium growth-inhibitory rate), TYP
Summary of the method: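 Mycelial agar disks (4 mm) were placed on malt extract agar containing test compound at 50 ppm and grown at 28° C.±2° C. Colony diameter was measured 2-10 days after inoculation and converted to percent mycelium growth inhibition, reported as symbol grades.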

Rhizopus nigricans = assay: as above; details: Rhizopus stolonifer, 28° C.±2° C., 2 to 10 days, read-out: Rotting preventing effect (mycelium growth-inhibitory rate), RHN
Summary of the method: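 Mycelial agar disks (4 mm) placed on malt extract agar containing 50 ppm test compound and grown at 28 °C ± 2 °C. Colony diameter measured 2-10 days after inoculation; mycelium growth-inhibitory rate (%) reported as a symbol score.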

[1] = test system: Trichophyton mentagrophytes IFO 5810; assay: In vitro antimicrobial activity on Trichophyton mentagrophytes; set-up: key: A: Fungus is not observed at all with the naked eye.; B: Presence of fungus is slightly observed on shaking the test tube.; C: Fungus of about less than one-fourth that of the DMSO control group is observed with the naked eye.; Fungus of about less than half that of the DMSO control group is observed with the naked eye; details: 10 (ppm); SGB, 27° C., 7 days
Experimental: 3-3 In vitro antimicrobial activity on Trichophyton mentagrophytes To Trichophyton mentagrophytes IFO 5810 precultured at 27° C. for 2 to 3 weeks on a Sabouraud's glucose agar (SGA) slant medium was added a sterilized physiological salt solution containing 0.1% (W/V) Tween 80. After conidia were made free from the solution, the solution was filtered through a sterilized two-sheet gauze to remove the mycelium mass. The number of the conidia in the resulting suspension was counted with a globulimeter and adjusted so as to be 1×10^6 conidia/ml with a sterilized physiological salt solution containing 0.1%(W/V) Tween 80. This solution was used as an inoculum solution. Thereafter, 0.1 ml of this solution and 0.1 ml of the dimethyl sulfoxide (DMSO) solution of the test compound were added to 9.8 ml of Sabouraud's glucose broth (SGB), and shake-cultured at 27° C. for 7 days.

| SMILES | inhibition at 50 ppm (Tyromyces palustris) | inhibition at 50 ppm (Rhizopus nigricans) | Antimycotic activity (degree of growth, naked eye), T.mentagrophytes [1] |
| --- | --- | --- | --- |
| COc1snc(OCC#CI)c1C#N [Compound 21, 3-(3-iodo-2-propynyloxy)-4-cyano-5-methoxyisothiazole] | 95 to 100% | 95 to 100% | A |
| CSc1snc(OC(C)OCC#CI)c1C#N (stereo not drawn) [Compound 119] | 95 to 100% | 80 to 94% | A |
| CCOc1nsc(SCOCC#CI)c1C#N [Compound 54] | 95 to 100% | 95 to 100% | A |
| CCOc1snc(OCOCC#CI)c1C#N [Compound 96] | 95 to 100% | 95 to 100% | A |
| CS(=O)(=O)c1snc(OCC#CI)c1C#N [Compound 41, 3-(3-iodo-2-propynyloxy)-4-cyano-5-methylsulfonylisothiazole] | 95 to 100% | 95 to 100% | A |
| CC(C)Oc1snc(OCC#CI)c1C#N [Compound 23] | 95 to 100% | 95 to 100% | A |
| CSc1snc(OCC#CI)c1C#N [Compound 1, 3-(3-iodo-2-propynyloxy)-4-cyano-5-methylthioisothiazole] | 95 to 100% | 95 to 100% | A |
| N#Cc1c(OCC#CI)nsc1SC(F)F [Compound 12, 3-(3-iodo-2-propynyloxy)-4-cyano-5-difluoromethylthioisothiazole] | 95 to 100% | 95 to 100% | A |
| N#Cc1c(OC(F)F)nsc1SCOCC#CI [Compound 60] | 95 to 100% | 95 to 100% | A |
| COc1nsc(OCC#CI)c1C#N [Compound 48] | 95 to 100% | 95 to 100% | A |
| CN(C)c1snc(OCC#CI)c1C#N [Compound 30, 3-(3-iodo-2-propynyloxy)-4-cyano-5-dimethylaminoisothiazole] | 95 to 100% | 95 to 100% | A |
| CSc1snc(OCCC#CI)c1C#N [Compound 70] | 95 to 100% | 80 to 94% | A |
| CSc1nsc(SCOCC#CI)c1C#N [Compound 136] | 95 to 100% | 95 to 100% | A |
| N#Cc1c(OCOCC#CI)nsc1SC(F)F [Compound 90] | 95 to 100% | 95 to 100% | A |
| N#Cc1c(OCC#CI)nsc1S(=O)(=O)C(F)F [Compound 43] | 95 to 100% | 95 to 100% | A |
| N#Cc1c(OC(F)F)nsc1OCCC#CI [Compound 82] | 95 to 100% | 95 to 100% | A |
